Biological target: T1, GST-tagged ROR gamma ligand binding domain (LBD) (Homo sapiens, UniProt P51449)
T1 construct: purchased Invitrogen
T1 sequence (P51449 269-508 limits assumed): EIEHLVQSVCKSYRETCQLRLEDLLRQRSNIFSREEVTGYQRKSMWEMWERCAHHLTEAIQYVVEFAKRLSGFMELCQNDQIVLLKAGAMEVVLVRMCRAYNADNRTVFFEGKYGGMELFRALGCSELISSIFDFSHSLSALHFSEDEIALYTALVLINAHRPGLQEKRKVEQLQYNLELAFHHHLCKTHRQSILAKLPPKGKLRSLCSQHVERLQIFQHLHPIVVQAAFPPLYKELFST
Assay: TR-FRET assay for ROR gamma (Lantha Screen, co-activator peptide recruitment)
Format: biochemical
Details: for IC50: class symbols, from dose response curve, read-out: IC50 value; for inhibition at 1 µM: read-out: % inhibition at 1 μM, compound concentration 1 μM; for inhibition at 1 µM / inhibition at 10 µM: TR-FRET ratio 520/495, percent of control; for inhibition at 10 µM: read-out: % inhibition at 10 μM, compound concentration 10 μM

| IC50 | inhibition at 1 µM | inhibition at 10 µM | SMILES |
| --- | --- | --- | --- |
| < 50 nM | 90% | 96.3% | Cc1ccccc1Oc1nn(-c2ccc(C(=O)O)cc2)c2ccccc12 [Example 1, 4-[3-(2-Methylphenoxy)-1H-indazol-1-yl]benzoic acid] |
| < 50 nM | 96.9% | 98.4% | O=C(O)c1ccc(-n2nc(Oc3ccccc3C(F)(F)F)c3ccccc32)cc1 [Example 2, 4-{3-[2-(Trifluoromethyl)phenoxy]-1H-indazol-1-yl}benzoic acid] |
|  | 23.4% | 34.6% | Cc1cccc(Oc2nn(-c3ccc(C(=O)O)cc3)c3ccccc23)c1 [Example 3, 4-[3-(3-Methylphenoxy)-1H-indazol-1-yl]benzoic acid] |
|  | 31.2% | 37% | O=C(O)c1ccc(-n2nc(Oc3ccccc3)c3ccccc32)cc1 [Example 4, 4-(3-Phenoxy-1H-indazol-1-yl)benzoic acid] |
| < 50 nM | 98.4% | 99% | O=C(O)c1ccc(-n2nc(Oc3c(Cl)cccc3Cl)c3ccccc32)cc1 [Example 5, 4-[3-(2,6-Dichlorophenoxy)-1H-indazol-1-yl]benzoic acid] |
| < 50 nM | 99.2% | 99.6% | O=C(O)c1ccc(-n2nc(Oc3c(Cl)cccc3Cl)c3ccccc32)c(F)c1 [Example 6, 4-[3-(2,6-Dichlorophenoxy)-1H-indazol-1-yl]-3-fluorobenzoic acid] |
| < 50 nM | 95.3% | 94.8% | O=C(O)c1ccc(-n2nc(Oc3c(Cl)cccc3C(F)(F)F)c3ccccc32)c(F)c1 [Example 7, 4-{3-[2-Chloro-6-(trifluoromethyl)phenoxy]-1H-indazol-1-yl}-3-fluorobenzoic acid] |
| < 50 nM | 96.4% | 98.2% | O=C(O)c1ccc(-n2nc(Oc3ccccc3C(F)(F)F)c3ccccc32)c(F)c1 [Example 8, 3-Fluoro-4-{3-[2-(trifluoromethyl)phenoxy]-1H-indazol-1-yl}benzoic acid] |
| > 100 nM | 86.5% | 96.9% | O=C(O)c1ccc(-n2nc(Oc3ccc(Cl)cc3C(F)(F)F)c3ccccc32)c(F)c1 [Example 9, 4-{3-[4-Chloro-2-(trifluoromethyl)phenoxy]-1H-indazol-1-yl}-3-fluorobenzoic acid] |
| < 50 nM | 100% | 100% | O=C(O)c1ccc(-n2nc(Oc3c(Cl)cccc3C(F)F)c3ccccc32)c(F)c1 [Example 10, 4-{3-[2-Chloro-6-(difluoromethyl)phenoxy]-1H-indazol-1-yl}-3-fluorobenzoic acid] |
| < 50 nM | 98.1% | 97.8% | O=C(O)c1ccc(-n2nc(Oc3c(Cl)cccc3Cl)c3cccc(F)c32)c(F)c1 [Example 11, 4-[3-(2,6-Dichlorophenoxy)-7-fluoro-1H-indazol-1-yl]-3-fluorobenzoic acid] |
| < 50 nM | 94.4% | 95.1% | O=C(O)c1ccc(-n2nc(Oc3c(Cl)cccc3C(F)F)c3cccc(F)c32)c(F)c1 [Example 12, 4-{3-[2-Chloro-6-(difluoromethyl)phenoxy]-7-fluoro-1H-indazol-1-yl}-3-fluorobenzoic acid] |
| < 50 nM | 91.7% | 91.7% | O=C(O)c1ccc(-n2nc(Oc3c(Cl)cccc3C3CC3)c3ccccc32)c(F)c1 [Example 13, 4-[3-(2-Chloro-6-cyclopropylphenoxy)-1H-indazol-1-yl]-3-fluorobenzoic acid] |
| < 50 nM | 91.4% | 91.2% | O=C(O)c1ccc(-n2nc(Oc3c(Cl)cccc3C3CC3)c3cccc(F)c32)c(F)c1 [Example 14, 4-[3-(2-Chloro-6-cyclopropylphenoxy)-7-fluoro-1H-indazol-1-yl]-3-fluorobenzoic acid] |

Reference: patent publication US9682977B2, “Bicyclic heteroaryl indole analogues useful as ROR gamma modulators” (Glenmark Pharmaceuticals S.A., priority 2013, dated 2017)
